Entries after “also recorded” stand apart in the source; their conditions may differ.
Assays:
PPARγ = molecular target: T1, PPARγ (Homo sapiens, UniProt P37231); assay: PathHunter NHRscan CHO cell-based functional protein interaction assay, PPARγ agonist; settings: CHO cells, 10 concentrations up to 100 μM; positive control troglitazone; read-out: concentration with PPARγ agonist activity
T1 construct: host or cells: Chinese hamster ovary (CHO)
T1 sequence (P37231 1-505): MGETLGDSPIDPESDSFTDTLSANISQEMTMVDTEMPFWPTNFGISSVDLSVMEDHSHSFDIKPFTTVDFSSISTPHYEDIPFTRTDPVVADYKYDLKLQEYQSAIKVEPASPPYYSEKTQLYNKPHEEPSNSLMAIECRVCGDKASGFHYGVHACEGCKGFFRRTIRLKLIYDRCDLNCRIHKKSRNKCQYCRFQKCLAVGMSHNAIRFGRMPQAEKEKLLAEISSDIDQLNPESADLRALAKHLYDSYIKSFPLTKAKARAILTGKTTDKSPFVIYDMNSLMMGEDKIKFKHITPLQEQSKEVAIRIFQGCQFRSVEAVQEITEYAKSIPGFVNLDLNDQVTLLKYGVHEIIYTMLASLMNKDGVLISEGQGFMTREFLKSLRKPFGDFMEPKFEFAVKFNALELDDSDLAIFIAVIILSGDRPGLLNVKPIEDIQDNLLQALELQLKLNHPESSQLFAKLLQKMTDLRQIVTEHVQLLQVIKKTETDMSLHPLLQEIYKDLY
Method: (§1) Chinese hamster ovary (CHO, cell line 93-0457C2) cell-based functional protein interaction assays for PPARα, δ, and γ that are part of the Eurofins/DiscoverX PathHunter NHRscan panel (Fremont, Calif.) were used to evaluate C15:0 and C17:0 PPARα, δ and γ agonist activities at 10 concentrations (up to 100 μM). Effective concentrations (EC:50) and maximum activities were determined in relation to positive controls (GW7647 for PPARα, L-165.041 for PPARδ, and troglitazone for PPARγ). Detailed methods used for these assays and assay readouts are available from Eurofins/DiscoverX.

[1] = molecular target: T2, cannabinoid receptor 1 (CB1) (Homo sapiens, UniProt P21554); assay: SAFETYscan E/IC50 ELECT functional assay, CB1 agonist activity; assay type: cell-based; settings: at 20 μM; relative to positive control CP 55940 assigned 100%
T2 construct: purchased DiscoverX/Eurofins, Fremont, Calif
Text: (§2) In order to evaluate potential pharmacologic targets of pentadecanoic acid, this study examined agonist and antagonist activities of synthetic pentadecanoic acid (Sigma-Aldrich Product W433400) across 78 assays using SAFETYscan E/IC50 ELECT (DiscoverX/Eurofins, Fremont, Calif.). Briefly, a variety of standardized and optimized functional assays were used, including G protein coupled receptors (ADORA2A, ADRA1A, ADRA2A, ADRB1, ADRB2, CB1, CB2, CCK1, D1, D2S, ETA, H1, H2, M1 M2, M3, OPRD1, OPRK1, OPRM1, 5HTR1A, 5HTR1B, 5HTR2A, 5HTR2B, AVPR1A), kinases (LCK, INSR, VEGFR2, ROCK1), transporters (DAT, NET, SERT), ion channels (GABAA, 5-HT3, CA1.2, HERG, KVLQT1/MINK, NA1.5, NMDAR1/2B, NACHR), nuclear receptors (AR, GR), and non-kinase enzymes (COX1, COX2, ACHE, MAOA, PDE3A, PDE4D2). Ten-point concentration curves for both agonist (EC50) and antagonist (IC50) activity were established for each target. Maximum activity (%) was also determined based on comparisons with internal positive controls, which were assigned 100% activity.

[2] = molecular target: T3, cannabinoid receptor 2 (CB2) (Homo sapiens, UniProt P34972); assay: SAFETYscan E/IC50 ELECT functional assay, CB2 agonist activity; assay type: cell-based; settings: at 20 μM; relative to positive control CP 55940 assigned 100%
T3 construct: purchased DiscoverX/Eurofins, Fremont, Calif
Text: as §2

[3] = Voluntary customer surveys after daily oral C15:0 supplement (fatty15); assay type: in vivo, human
Method: An odd-chain saturated fatty acid dietary supplement, containing an encapsulated pure (>98%) free fatty acid C15:0 powder and called fatty15™, was launched as a consumer health product. Recommended dosing was a single, […] capsule taken orally once a day. Based on our studies with obese mice, we hypothesized that daily oral C15:0 supplementation would decrease snacking and/or improve body weight among customers.
6-Week Survey. Six weeks following receipt of the C15:0 supplement, customers were provided a voluntary electronic questionnaire to evaluate potential near-term benefits, including the question, ‘Overall how much would you agree with the following statement: Since starting fatty15, I feel less hungry between meals, snack less, and/or eat less during meals.’ Survey responders were asked to select a number between 1 and 10, in which 1=Strongly disagree and 10=Strongly agree. A response of 7 or greater was considered an agreement with the statement. Survey responders were also asked if fatty15™ had become a part of their daily health routine.
4-Month Survey. Approximately 4 months following receipt of the C15:0 supplement, customers were provided a second voluntary electronic questionnaire to evaluate potential longer-tem benefits, including the question, ‘Which of the following (if any) have you experienced since starting fatty15, even if this experience has been subtle?’ Two of the possible responses were ‘Healthier eating, including less snacking’ and ‘Healthier body weight’.

[4] = Body weight of mice fed a high-fat diet with daily oral supplementation; assay type: in vivo, male C57BL/6J mice; settings: for Body weight / Body weight change (%): high fat diet, n = 10; for percent body weight gain / weight-lowering effect compared to non-supplemented controls: high fat diet mice, C15:0 5 mg/kg, C17:0 5 and 35 mg/kg daily oral
Text: This study assessed the effects of daily oral C15:0 and C17:0 supplementation on the body weight of mice fed a high-fat diet compared to non-supplemented controls.
Forty 6-week old male C57BL/6J mice (Jackson Laboratories, Bar Harbor, Me.) were fed a high fat diet (HFD, 60% kilocalories fat, D12492 Research Diets Inc., New Brunswick, N.J.) for eight weeks. Animals were randomly assigned to one of the following four study groups (10 per group) on Day −1 based on body weight: Group 1 (HFD non-supplemented controls), Group 2 (daily oral 5 mg/kg heptadecanoic acid, C17:0), Group 3 (daily oral 35 mg/kg heptadecanoic acid, C17:0), and Group 4 (daily oral 5 mg/kg pentadecanoic acid, C15:0). Group sizes for this pilot study were based on numerous published studies initially evaluating the effects of other natural small molecules on similar metabolic indices in the same model. Animals were provided the vehicle (1×PBS) or test articles daily via gastric gavage for 12 weeks. Animals were fed the HFD throughout the study. The study was conducted by Charles River Laboratories (Shrewsbury, Mass.), where animals were housed singly in solid bottom polycarbonate cages with Beta-chip contact bedding and enviro-dri nesting material, with temperature and humidity ranges of 18° to 26° C. and 30 to 70%, respectively. A 12 hr light cycle was used, and water and food were provided ad libitum. Body weights and body weight changes were recorded weekly throughout the study. Due to low sample sizes and inability to assume normal distributions, Wilcoxon tests were used to compare body weight values between supplemented and non-supplemented controls; a two-sided P value ≤0.05 was defined as significant.

PPARα = molecular target: T4, PPARα (Homo sapiens, UniProt Q07869); assay: PathHunter NHRscan CHO cell-based functional protein interaction assay, PPARα agonist; settings: CHO cells, 10 concentrations up to 100 μM; for EC50: read-out: effective concentration needed to reach half-maximum PPARα activity
T4 construct: host or cells: Chinese hamster ovary (CHO)
T4 sequence (Q07869 1-468): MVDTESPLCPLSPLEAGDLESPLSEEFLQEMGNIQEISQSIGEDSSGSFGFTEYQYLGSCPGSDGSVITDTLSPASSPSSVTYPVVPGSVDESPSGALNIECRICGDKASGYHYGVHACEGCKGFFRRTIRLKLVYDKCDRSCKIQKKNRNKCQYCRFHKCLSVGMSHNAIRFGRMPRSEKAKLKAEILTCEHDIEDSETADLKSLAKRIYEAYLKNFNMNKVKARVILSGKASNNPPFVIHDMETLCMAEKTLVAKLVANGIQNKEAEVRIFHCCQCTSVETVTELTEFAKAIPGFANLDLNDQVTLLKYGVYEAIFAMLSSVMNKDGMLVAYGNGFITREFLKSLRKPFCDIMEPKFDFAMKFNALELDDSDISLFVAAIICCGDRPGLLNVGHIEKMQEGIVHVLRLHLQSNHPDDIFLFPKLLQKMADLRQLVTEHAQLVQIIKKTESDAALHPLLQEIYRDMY
Method: as §1

PPARδ = molecular target: T5, PPARδ (Homo sapiens, UniProt Q03181); assay: PathHunter NHRscan CHO cell-based functional protein interaction assay, PPARδ agonist; settings: CHO cells, 10 concentrations up to 100 μM; for EC50: read-out: effective concentration needed to reach half-maximum PPARδ activity
T5 construct: host or cells: Chinese hamster ovary (CHO)
T5 sequence (Q03181 1-441): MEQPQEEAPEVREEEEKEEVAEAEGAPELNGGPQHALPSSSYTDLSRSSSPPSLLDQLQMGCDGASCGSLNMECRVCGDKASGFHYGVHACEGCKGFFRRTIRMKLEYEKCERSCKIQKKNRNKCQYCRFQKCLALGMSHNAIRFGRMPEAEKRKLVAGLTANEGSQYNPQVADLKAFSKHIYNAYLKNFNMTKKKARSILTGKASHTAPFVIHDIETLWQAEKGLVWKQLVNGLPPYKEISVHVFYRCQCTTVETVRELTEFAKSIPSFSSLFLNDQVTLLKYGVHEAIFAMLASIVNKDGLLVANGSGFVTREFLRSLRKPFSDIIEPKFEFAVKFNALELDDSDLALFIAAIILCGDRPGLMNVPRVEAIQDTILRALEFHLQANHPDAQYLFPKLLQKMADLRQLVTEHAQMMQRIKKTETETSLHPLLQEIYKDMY
Method: as §1

[5] = after 4 months of daily oral 100 mg, 44 responders
[6] = 5 mg/kg daily oral gavage for 12 weeks
[7] = 5 mg/kg daily oral gavage for 12 weeks, *p < 0.05 compared to controls
[8] = 35 mg/kg daily oral gavage for 12 weeks

T2 sequence (P21554 whole entry): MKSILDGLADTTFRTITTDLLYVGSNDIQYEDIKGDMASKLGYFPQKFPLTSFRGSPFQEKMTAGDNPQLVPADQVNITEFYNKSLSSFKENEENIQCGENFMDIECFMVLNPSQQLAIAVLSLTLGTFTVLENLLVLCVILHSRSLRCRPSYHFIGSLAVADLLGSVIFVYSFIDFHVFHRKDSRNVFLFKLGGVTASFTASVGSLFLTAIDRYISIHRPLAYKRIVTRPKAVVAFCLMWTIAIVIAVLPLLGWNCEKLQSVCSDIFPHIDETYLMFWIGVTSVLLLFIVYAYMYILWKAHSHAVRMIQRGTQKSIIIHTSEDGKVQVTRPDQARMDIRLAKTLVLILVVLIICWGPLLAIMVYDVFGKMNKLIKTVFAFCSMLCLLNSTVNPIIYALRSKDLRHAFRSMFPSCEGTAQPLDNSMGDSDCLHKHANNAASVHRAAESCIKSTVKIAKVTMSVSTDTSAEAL
T3 sequence (P34972 whole entry): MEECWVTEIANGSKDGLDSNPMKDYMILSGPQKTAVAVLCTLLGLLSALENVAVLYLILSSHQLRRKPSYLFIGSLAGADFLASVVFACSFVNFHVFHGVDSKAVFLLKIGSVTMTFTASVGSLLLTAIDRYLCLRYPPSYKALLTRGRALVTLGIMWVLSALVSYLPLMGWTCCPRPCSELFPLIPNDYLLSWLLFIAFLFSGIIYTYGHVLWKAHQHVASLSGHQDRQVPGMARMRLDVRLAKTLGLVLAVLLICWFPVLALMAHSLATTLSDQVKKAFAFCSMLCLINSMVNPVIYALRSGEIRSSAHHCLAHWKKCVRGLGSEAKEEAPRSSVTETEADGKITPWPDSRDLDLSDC

## CCCCCCCCCCCCCCC(=O)O [C15:0, pentadecanoic acid]
PPARγ
  EC50: ≥ 100 µM
[1]
  CB1 agonist activity: 24.5%
[2]
  CB2 agonist activity: 18.2%
[3]; [5]
  customers reporting healthier body weight: 21%
  customers reporting healthier eating, including less snacking: 33%
[3]; after 6 weeks of daily oral 100 mg, 114 responders
  customers reporting feeling less hungry between meals, snacking less, and/or eating less during meals: 46%
[3]; dietary supplement
  satiety reported by patients taking the dietary supplement: increased satiety
[4]; [6]
  Body weight: 41 ± 5 g
[4]; [7]
  Body weight change (%): 120 ± 6* %
[4]
  percent body weight gain / weight-lowering effect compared to non-supplemented controls: weight-lowering effect was observed; also recorded: lower percent body weight gain
PPARα
  maximum PPARα agonist activity compared to positive control GW7647: 65.8%
  EC50: 11.5 µM
PPARδ
  maximum PPARδ agonist activity compared to positive control L-165,041: 52.8%
  EC50: 2.7 µM

## CCCCCCCCCCCCCCCCC(=O)O [C17:0, heptadecanoic acid]
PPARγ
  EC50: ≥ 100 µM
[4]; [6]
  Body weight: 43 ± 6 g
[4]; [7]
  Body weight change (%): 127 ± 9%
[4]; [8]
  Body weight: 41 ± 7 g
  Body weight change (%): 122 ± 12%
[4]
  percent body weight gain / weight-lowering effect compared to non-supplemented controls: weight-lowering effect was not observed; also recorded: did not significantly decrease percent body weight
PPARα
  EC50: > 100 µM
PPARδ
  maximum PPARδ agonist activity compared to positive control L-165,041: 39.8%
  EC50: 17.4 µM

— patent US20230201153A1, “COMPOSITIONS AND METHODS FOR TREATMENT OF OBESITY” (EPITRACKER, INC., priority 2020, published 2023)
